In patent US6335355B1, “Crop protection products” (Syngenta Investment Corporation, priority 1995, dated 2002):
Read-outs that look alike come from different tables or passages of the source.

Key:
[1] = test system: Colletotrichum lagenarium; assay: Action against Colletotrichum lagenarium on Cucumis sativus L./foliar application; format: in vivo
[2] = test system: Colletotrichum lagenarium; assay: Action against Colletotrichum lagenarium on Cucumis sativus L./soil application; format: in vivo
Erysiphe graminis = assay: Action against Erysiphe graminis on barley
Procedure: A1: Action gainst Erysiphe graminis on Barley
a) Residual-protective Action Barley plants about 8 cm in height are sprayed to drip point with an aqueous spray mixture (max. 0.02% active ingredient) and are dusted 3 to 4 days later with conidia of the fungus. The infected plants are stood in a greenhouse at 22°. Fungus infestation is generally evaluated 10 days after infection.
b) Systemic Action Barley plants about 8 cm in height are watered with an aqueous spray mixture (max. 0.002% active ingredient, based on the volume of the soil). […] The plants are dusted with conidia of the fungus 3 to 4 days later. The infected plants are stood in a greenhouse at 22°. Fungus infestation is generally evaluated 10 days after infection.

[3] = test system: Cercospora sp. (leaf spot); assay: Field test on chilli: action against Cercospora sp. (leaf spot)
Source text: In a plot of land about 10 m^2 (test location: Cikampek, Java, Indonesia), chilli plants are sprayed a total of 7 times at intervals of about 7 days with 500-700 litres of spray mixture per hectare. Three days after the first spraying, the plants are infected artificially with the fungus.
Evaluation is made by assessing infestation on the leaves after the sixth spraying.

Pyricularia oryzae = format: in vivo; conditions: Example B11
[4] = Field test on chilli: action on crop yield; format: in vivo; conditions: Example B10, chillis harvested after the sixth spraying
Cercospora nicotianae = assay: Action against Cercospora nicotianae on tobacco plants; format: in vivo
[5] = Example B3(a), 0.06 mg a.i. per liter (ppm)
[6] = Example B3(a), 0.2 mg a.i. per liter (ppm)
[7] = Example B3(b), 0.2 mg a.i. per liter (ppm)
[8] = Example B1, 0.6 mg a.i. per liter (ppm)
[9] = Example B1, 2 mg a.i. per liter (ppm)
[10] = Example B1, 6 mg a.i. per liter (ppm)
[11] = Example B9(a), 6 mg a.i. per liter (ppm)
[12] = Example B9(b), 0.02 mg a.i. per liter (ppm)
[13] = Example B9(b), 0.06 mg a.i. per liter (ppm)
[14] = Example B5, 2 mg a.i. per liter (ppm)
[15] = Example B5, 6 mg a.i. per liter (ppm)
[16] = Example B7, 2 mg a.i. per liter (ppm)
[17] = Example B7, 6 mg a.i. per liter (ppm)

Compound: O=C(O)c1cccc2nnsc12 [compound IA, benzothiadiazole-7-carboxylic acid]
- % action O (found) [1, 5]: 0%
- % action O (found) [1, 6]: 5%
- % action O (found) ([1]; Example B3(a), 2 mg a.i. per liter (ppm)): 22%
- % action O (found) ([1]; Example B4, 0.2 mg a.i. per liter (ppm)): 3%
- % action O (found) ([1]; Example B4, 0.6 mg a.i. per liter (ppm)): 51%
- % action O (found) ([2]; Example B3(b), 0.006 mg a.i. per liter (ppm)): 0%
- % action O (found) ([2]; Example B3(b), 0.02 mg a.i. per liter (ppm)): 40%
- % action O (found) ([2]; Example B3(b), 0.06 mg a.i. per liter (ppm)): 49%
- % action O (found) [2, 7]: 91%
- % action O (found) (Erysiphe graminis; [8]): 0%
- % action O (found) (Erysiphe graminis; [9]): 40%
- % action O (found) (Erysiphe graminis; [10]): 89%
- % action O (found) (Erysiphe graminis; Example B2, 0.6 mg a.i. per liter (ppm)): 14%
- % action O (found) (Erysiphe graminis; Example B2, 2 mg a.i. per liter (ppm)): 27%

Compound: CSC(=O)c1cccc2nnsc12 [compound ID, benzothiadiazole-7-carboxylic acid thiomethyl ester]
- % action O (found) ([3]; Example B10, 5 mg a.i. per liter (ppm)): 76%
- % action O (found) ([1]; Example B9(a), 0.06 mg a.i. per liter (ppm)): 16%
- % action O (found) ([1]; Example B9(a), 0.2 mg a.i. per liter (ppm)): 22%
- % action O (found) [1, 11]: 60%
- % action O (found) ([2]; Example B9(b), 0.006 mg a.i. per liter (ppm)): 0%
- % action O (found) [2, 12]: 6%
- % action O (found) [2, 13]: 23%
- % action O (found) ([2]; Example B9(b), 0.2 mg a.i. per liter (ppm)): 36%
- % action O (found) (Erysiphe graminis; Example B8, 0.6 mg a.i. per liter (ppm)): 0%
- % action O (found) (Erysiphe graminis; Example B8, 2 mg a.i. per liter (ppm)): 33%
- % action O (found) (Pyricularia oryzae; 6 mg a.i. per liter (ppm)): 15%
- Action on crop yield, % action O (found) ([4]; 5 mg a.i. per liter (ppm)): 459%
- % action O (found) (Cercospora nicotianae; Example B5, 0.2 mg a.i. per liter (ppm)): 0%
- % action O (found) (Cercospora nicotianae; [14]): 17%
- % action O (found) (Cercospora nicotianae; [15]): 55%
- % action O (found) (Cercospora nicotianae; Example B5, 20 mg a.i. per liter (ppm)): 78%
- % action O (found) (Cercospora nicotianae; Example B7, 0.2 mg a.i. per liter (ppm)): 0%
- % action O (found) (Cercospora nicotianae; [16]): 17%
- % action O (found) (Cercospora nicotianae; [17]): 55%
- % action O (found) (Cercospora nicotianae; Example B7, 20 mg a.i. per liter (ppm)): 78%

Compound: CC(C)(C)C(O)(CCc1ccc(Cl)cc1)Cn1cncn1 (stereo not drawn) [compound IIA, α-[2-(4-chlorophenyl)ethyl]-α-(1,1-dimethylethyl)-1H-1,2,4-trazole-1-ethanol]
- % action O (found) (Cercospora nicotianae; [14]): 0%
- % action O (found) (Cercospora nicotianae; [15]): 0%

Compound: CC(C1CC1)C(O)(Cn1cncn1)c1ccc(Cl)cc1 (stereo not drawn) [compound IIC, α-(4-chlorophenyl)-α-(1-cyclopropylethyl)-1H-1,2,4-triazole-1-ethanol]
- % action O (found) (Erysiphe graminis; Example B8, 6 mg a.i. per liter (ppm)): 17%
- % action O (found) (Erysiphe graminis; Example B8, 20 mg a.i. per liter (ppm)): 33%
- % action O (found) (Erysiphe graminis; Example B8, 60 mg a.i. per liter (ppm)): 50%
- % action O (found) (Cercospora nicotianae; [16]): 0%
- % action O (found) (Cercospora nicotianae; [17]): 0%

Compound: CC1(C)CCC(Cc2ccc(Cl)cc2)C1(O)Cn1cncn1 (stereo not shown) [compound IID, 5-(4-chlorobenzyl)-2,2-dimethyl-1-(1H-1,2,4-triazol-1-ylmethyl)-cyclopentanol]
- % action O (found) (Erysiphe graminis; [8]): 10%
- % action O (found) (Erysiphe graminis; [9]): 40%
- % action O (found) (Erysiphe graminis; [10]): 51%
- % action O (found) (Erysiphe graminis; Example B1, 20 mg a.i. per liter (ppm)): 65%

Compound: CO/C=C(/C(=O)OC)c1ccccc1Oc1cc(Oc2ccccc2C#N)ncn1 [compound IIF, methyl-(E)-2-{2-[6-(2-cyanophenoxy)pyrimidin4-yloxy]phenyl}-3-methoxyacrylate]
- % action O (found) [1, 5]: 5%
- % action O (found) [1, 6]: 9%
- % action O (found) ([1]; Example B3(a), 0.6 mg a.i. per liter (ppm)): 12%
- % action O (found) ([1]; Example B3(a), 6 mg a.i. per liter (ppm)): 17%
- % action O (found) ([1]; Example B9(a), 2 mg a.i. per liter (ppm)): 18%
- % action O (found) [1, 11]: 75%
- % action O (found) [2, 7]: 0%
- % action O (found) ([2]; Example B3(b), 0.6 mg a.i. per liter (ppm)): 9%
- % action O (found) ([2]; Example B3(b), 2 mg a.i. per liter (ppm)): 28%
- % action O (found) ([2]; Example B3(b), 6 mg a.i. per liter (ppm)): 66%
- % action O (found) [2, 12]: 1%
- % action O (found) [2, 13]: 5%
- % action O (found) ([2]; Example B9(b), 0.6 mg a.i. per liter (ppm)): 27%
- % action O (found) ([2]; Example B9(b), 2 mg a.i. per liter (ppm)): 61%
- % action O (found) ([2]; Example B9(b), 6 mg a.i. per liter (ppm)): 93%

Compound: CO/N=C(/C(=O)OC)c1ccccc1COc1ccccc1C [compound IIG, methyl-(E)-2-methoximino-2-[α-(o-tolyloxy)-o-tolyl]acetate]
- % action O (found) ([1]; Example B4, 2 mg a.i. per liter (ppm)): 0%
- % action O (found) ([1]; Example B4, 20 mg a.i. per liter (ppm)): 41%

Compound: CCC1(C(=O)NC(C)c2ccc(Cl)cc2)C(C)C1(Cl)Cl [compound IIK, (1R,3S/1S,3R)-2,2-dichloro-N-[(R)-1-(4-chlorophenyl)ethyl]-1-ethyl-3-methylcyclo-propanecarboxamide]
- % action O (found) (Pyricularia oryzae; 0.02 mg a.i. per liter (ppm)): 0%
- % action O (found) (Pyricularia oryzae; 0.06 mg a.i. per liter (ppm)): 28%
- % action O (found) (Pyricularia oryzae; 0.2 mg a.i. per liter (ppm)): 47%
- % action O (found) (Pyricularia oryzae; 0.6 mg a.i. per liter (ppm)): 79%
- % action O (found) (Pyricularia oryzae; 2 mg a.i. per liter (ppm)): 83%
- % action O (found) (Pyricularia oryzae; 6 mg a.i. per liter (ppm)): 91%

Compound: manganese ethylenebis (dithiocarbamate) polymer-zinc complex [compound IIL]
- % action O (found) ([3]; Example B10, 100 mg a.i. per liter (ppm)): 8%
- Action on crop yield, % action O (found) ([4]; 100 mg a.i. per liter (ppm)): 8%
